Results taken from publication PMC5605198, “MELK is not necessary for the proliferation of basal-like breast cancer cells” (eLife, 2017).

Tests used:
FKBP12^F36V-MELK(sg3R) = test: dTAG-induced degradation, immunoblot; format: cell-based; conditions: MELK−/− MDA-MB-468-FKBP12^F36V-MELK(sg3R) cells
Protocol: Four dTAG molecules (7, 13, 36 and 47) that vary in linker length and chemical structure were tested for their efficiency at depleting FKBP12^F36V-MELK(sg3R) (Figure 4A, Figure 4—figure supplement 3).
Figure 4. […] (A) Chemical structure of heterobifunctional dTAG molecule dTAG-47. See also Figure 4—figure supplement 3 for the chemical structures of dTAG-7, dTAG-13 and dTAG-36. (B) Immunoblots for MELK and GAPDH after treatment of dTAG-7, 13, 36, and 47 at indicated concentrations in MELK−/− MDA-MB-468-FKBP12^F36V-MELK(sg3R) cells for 4 hours. See Figure 4—figure supplement 1 for details of the generation of MELK−/− MDA-MB-468-FKBP12^F36V-MELK(sg3R) clones. (C) Same as in 4B, but with treatment at 500 nM and extended treatment times for 14, 24, 48, and 72 hours. (D) Changes in abundance of 7270 proteins (peptide count ≥2) comparing MELK−/− MDA-MB-468-FKBP12^F36V-MELK cells treated with dTAG-7 (250 nM) or DMSO for 1 hour, versus p-value (dTAG-7: triplicate, DMSO: duplicate, limma moderated t-test). See also Figure 4—source datas 1 and 2 for the original and the processed data. (E) Crystal violet staining image showing parental MDA-MB-468 cells and MELK−/− MDA-MB-468-FKBP12^F36V-MELK(sg3R) cells after treatment with DMSO or 500 nM of dTAG-47 for 9 days. Immunoblots showing MELK and GAPDH from a duplicate plate on Day 9 confirmed sustained depletion of FKBP12^F36V-MELK(sg3R). These are representative data from one of two independent experiments. Figure 4—source data 1. Raw integrated ion intensities from quantitative multiplexed proteomics. Figure 4—source data 2. Processed Data and Statistical Analysis by limma (topTable). Figure 4—figure supplement 1. Single clones selected from MDA-MB-468-FKBP12^F36V-MELK(sg3R) cells subject to CRISPR/Cas9-mediated knockout of endogenous MELK. Immunoblots for MELK and GAPDH in single cell clones selected from MDA-MB-468-FKBP12^F36V-MELK(sg3R) transfected with Cas9/sgMELK-3 to knockout endogenous MELK. Clone 1D4 is clone 1 and clone 1A3 is clone 2 in Figure 4. Clone 1D4 was confirmed with heterozygous −1 and +1 indels; clone 1A3 was confirmed with homozygous −1 deletions. [drawing 5] Figure 4—figure supplement 2. […] (A) Immunoblots for MELK, cyclin B1 and GAPDH in asynchronous versus M-phase arrested MDA-MB-468 cells and MDA-MB-468-FKBP12^F36V-MELK(sg3R) cells (clone 1). […] Chemical structures of dTAG molecules. FKBP12^F36V-binding ligands conjugated by variable linkers to thalidomide or pomalidomide, including (A) dTAG-7, (B) dTAG-13 and (C) dTAG-36 are capable of inducing degradation of FKBP12^F36V-tagged proteins of interest. [drawing 7]

MELK = biological target: T1, MELK (Homo sapiens, UniProt P62942+Q14680); test: Quantitative multiplexed proteomics (TMT LC-MS3); format: cell-based; conditions: 250 nM, 60 min, MELK−/− MDA-MB-468-FKBP12^F36V-MELK cells
T1 construct: expressed in transfected cells; host or cells: MDA-MB-468 (lentiviral transduction, endogenous MELK knocked out)
T1 sequence (P62942+Q14680 fused P62942:F37V): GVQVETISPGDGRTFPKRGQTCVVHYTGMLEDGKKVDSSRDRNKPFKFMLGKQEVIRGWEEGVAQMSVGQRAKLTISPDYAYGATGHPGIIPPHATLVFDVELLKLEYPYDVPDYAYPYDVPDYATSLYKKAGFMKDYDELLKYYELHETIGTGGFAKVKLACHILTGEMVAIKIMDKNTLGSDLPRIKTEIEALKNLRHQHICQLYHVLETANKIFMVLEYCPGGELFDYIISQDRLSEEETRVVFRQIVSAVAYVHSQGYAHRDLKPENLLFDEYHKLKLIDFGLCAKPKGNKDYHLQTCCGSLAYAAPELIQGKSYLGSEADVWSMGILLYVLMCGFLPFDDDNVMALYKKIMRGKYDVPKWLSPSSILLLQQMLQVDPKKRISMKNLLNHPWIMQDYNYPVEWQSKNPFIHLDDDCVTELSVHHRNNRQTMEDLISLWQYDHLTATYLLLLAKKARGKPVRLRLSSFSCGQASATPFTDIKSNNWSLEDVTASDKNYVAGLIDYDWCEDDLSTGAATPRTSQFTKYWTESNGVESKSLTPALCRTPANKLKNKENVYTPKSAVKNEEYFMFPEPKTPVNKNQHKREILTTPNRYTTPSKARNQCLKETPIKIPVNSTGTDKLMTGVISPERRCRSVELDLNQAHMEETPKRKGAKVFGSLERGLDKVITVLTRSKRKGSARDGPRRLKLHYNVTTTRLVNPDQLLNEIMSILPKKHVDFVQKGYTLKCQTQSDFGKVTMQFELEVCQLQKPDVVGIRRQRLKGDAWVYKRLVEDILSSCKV
T1 sequence (Q96SW2 whole entry partner): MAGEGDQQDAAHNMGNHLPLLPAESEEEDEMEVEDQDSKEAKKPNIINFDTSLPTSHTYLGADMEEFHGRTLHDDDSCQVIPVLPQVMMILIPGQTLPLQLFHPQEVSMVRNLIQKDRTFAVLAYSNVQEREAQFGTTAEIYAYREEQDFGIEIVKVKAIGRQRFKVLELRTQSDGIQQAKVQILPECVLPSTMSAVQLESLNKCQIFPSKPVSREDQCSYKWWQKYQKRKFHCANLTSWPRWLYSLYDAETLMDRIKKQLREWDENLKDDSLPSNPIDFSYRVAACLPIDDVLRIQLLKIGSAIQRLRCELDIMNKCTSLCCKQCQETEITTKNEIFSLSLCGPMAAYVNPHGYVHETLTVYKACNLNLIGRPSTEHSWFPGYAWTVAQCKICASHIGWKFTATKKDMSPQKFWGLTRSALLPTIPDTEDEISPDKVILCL
T1 sequence (Q16531 2-1140 partner limits assumed): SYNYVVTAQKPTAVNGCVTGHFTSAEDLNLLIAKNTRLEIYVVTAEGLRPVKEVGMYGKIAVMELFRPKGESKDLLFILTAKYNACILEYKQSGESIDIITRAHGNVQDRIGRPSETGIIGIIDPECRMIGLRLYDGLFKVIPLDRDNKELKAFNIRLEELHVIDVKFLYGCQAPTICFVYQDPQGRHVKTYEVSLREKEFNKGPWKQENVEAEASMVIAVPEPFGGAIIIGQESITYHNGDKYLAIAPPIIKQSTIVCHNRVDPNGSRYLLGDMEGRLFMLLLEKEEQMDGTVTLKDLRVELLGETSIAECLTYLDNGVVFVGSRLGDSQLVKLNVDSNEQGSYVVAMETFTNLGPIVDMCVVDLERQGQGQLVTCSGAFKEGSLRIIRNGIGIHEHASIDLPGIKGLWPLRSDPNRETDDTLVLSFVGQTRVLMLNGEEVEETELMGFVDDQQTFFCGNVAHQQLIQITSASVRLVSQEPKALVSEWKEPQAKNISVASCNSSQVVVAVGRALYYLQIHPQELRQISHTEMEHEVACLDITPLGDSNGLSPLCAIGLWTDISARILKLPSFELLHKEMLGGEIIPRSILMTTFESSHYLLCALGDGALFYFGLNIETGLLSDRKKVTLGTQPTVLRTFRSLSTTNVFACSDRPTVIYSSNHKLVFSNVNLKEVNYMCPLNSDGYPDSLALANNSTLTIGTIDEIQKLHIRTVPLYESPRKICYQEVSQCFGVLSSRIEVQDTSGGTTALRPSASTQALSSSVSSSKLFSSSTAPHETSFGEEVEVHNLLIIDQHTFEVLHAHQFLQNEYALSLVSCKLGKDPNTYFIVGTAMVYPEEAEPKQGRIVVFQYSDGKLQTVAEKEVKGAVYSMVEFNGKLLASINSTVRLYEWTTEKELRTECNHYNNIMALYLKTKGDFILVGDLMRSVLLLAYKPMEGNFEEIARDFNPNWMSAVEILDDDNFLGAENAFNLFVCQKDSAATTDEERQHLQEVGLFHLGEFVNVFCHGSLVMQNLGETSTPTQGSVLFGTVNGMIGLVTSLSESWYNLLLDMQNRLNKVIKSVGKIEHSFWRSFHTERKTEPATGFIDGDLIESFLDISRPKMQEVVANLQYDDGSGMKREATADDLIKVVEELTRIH
Protocol: (§1) MELK−/− MDA-MB-468-FKBP12^F36V-MELK cells were treated in duplicates with DMSO for 30 minutes or 60 minutes, or in triplicates with dTAG-7 (250 nM) for 30 minutes or 60 minutes. Cells were washed with ice-cold PBS once, collected by scraping and centrifugation, and lysed in 1 mL of lysis buffer (8 M urea, 1% SDS, 50 mM Tris pH8.5 supplemented with protease and phosphatase inhibitors). A micro-BCA assay (Pierce) was used to determine the protein concentration of each sample. A total of 1200 µg of proteins from each sample was depleted of abundant proteins using two Pierce Top 12 protein depletion spin columns. Eluted proteins were combined, and protein concentration was determined by micro-BCA. […] Peptide quantification was performed using the micro-BCA assay (Pierce). […]
(§2) 12 of the 24 peptide fractions from the basic reverse phase fractionation (every other fraction) were analyzed with an LC-MS3 data collection strategy ([McAlister et al., 2014]) on an Orbitrap Fusion mass spectrometer (Thermo Fisher Scientific) equipped with a Proxeon Easy nLC 1000 for online sample handling and peptide separations. […]
(§3) A suite of in-house software tools were used to for. RAW file processing and controlling peptide and protein level false discovery rates, assembling proteins from peptides, and protein quantification from peptides as previously described. […]

EEA1 = test: Quantitative multiplexed proteomics (TMT LC-MS3); format: cell-based, human; conditions: 250 nM, 60 min, MELK−/− MDA-MB-468-FKBP12^F36V-MELK cells
Protocol: as §1, with “micro-BCA. Proteins were precipitated on ice for 1 hour with 13% trichloroacetic acid (TCA), washed twice with acetone, and pellets were allowed to air dry. Proteins were resuspended in 6 M urea, 50 mM Tris pH 8.5, reduced with 5 mM dithiothreitol (DTT) at room temperature for 1 hour, and alkylated with 15 mM iodoacetamide in the dark at room temperature for 1 hour. Alkylation was quenched with DTT. Urea concentration was reduced to 4 M and proteins were digested with LysC (1:50; enzyme:protein) for 6 hours at 25°C. The LysC digestion was diluted to 1 M urea, 50 mM Tris pH 8.5 and then digested with trypsin (1:100; enzyme:protein) overnight at 37°C.” for “micro-BCA.”
as §2, §3

MKL1 = test: Quantitative multiplexed proteomics (TMT LC-MS3); format: cell-based, human; conditions: 250 nM, 60 min, MELK−/− MDA-MB-468-FKBP12^F36V-MELK cells
Protocol: as §1, with “micro-BCA. Proteins were precipitated on ice for 1 hour with 13% trichloroacetic acid (TCA), washed twice with acetone, and pellets were allowed to air dry. Proteins were resuspended in 6 M urea, 50 mM Tris pH 8.5, reduced with 5 mM dithiothreitol (DTT) at room temperature for 1 hour, and alkylated with 15 mM iodoacetamide in the dark at room temperature for 1 hour. Alkylation was quenched with DTT. Urea concentration was reduced to 4 M and proteins were digested with LysC (1:50; enzyme:protein) for 6 hours at 25°C. The LysC digestion was diluted to 1 M urea, 50 mM Tris pH 8.5 and then digested with trypsin (1:100; enzyme:protein) overnight at 37°C.” for “micro-BCA.”
as §2, §3

HNRNPR = test: Quantitative multiplexed proteomics (TMT LC-MS3); format: cell-based, human; conditions: 250 nM, 60 min, MELK−/− MDA-MB-468-FKBP12^F36V-MELK cells
Protocol: as §1, with “micro-BCA. Proteins were precipitated on ice for 1 hour with 13% trichloroacetic acid (TCA), washed twice with acetone, and pellets were allowed to air dry. Proteins were resuspended in 6 M urea, 50 mM Tris pH 8.5, reduced with 5 mM dithiothreitol (DTT) at room temperature for 1 hour, and alkylated with 15 mM iodoacetamide in the dark at room temperature for 1 hour. Alkylation was quenched with DTT. Urea concentration was reduced to 4 M and proteins were digested with LysC (1:50; enzyme:protein) for 6 hours at 25°C. The LysC digestion was diluted to 1 M urea, 50 mM Tris pH 8.5 and then digested with trypsin (1:100; enzyme:protein) overnight at 37°C.” for “micro-BCA.”
as §2, §3

CCC(C(=O)N1CCCCC1C(=O)OC(CCc1ccc(OC)c(OC)c1)c1ccccc1OCC(=O)NCCCOCCOCCOCCCNC(=O)COc1cccc2c1C(=O)N(C1CCC(=O)NC1=O)C2=O)c1cc(OC)c(OC)c(OC)c1 (centres unmarked) [dTAG-7]
time to efficient depletion of FKBP12^F36V-MELK(sg3R) (FKBP12^F36V-MELK(sg3R)): ≤ 4 h | logFC (log2 fold change of dTAG-7 to DMSO) MELK (MELK): -0.8583 | logFC (log2 fold change of dTAG-7 to DMSO) EEA1 (EEA1): -0.08592 | logFC (log2 fold change of dTAG-7 to DMSO) MKL1 (MKL1): -0.2984 | logFC (log2 fold change of dTAG-7 to DMSO) HNRNPR (HNRNPR): 0.28
